Data published in patent publication US11028090B2 (Dong Wha Pharm. Co., Ltd., priority 2017, dated 2021).
pIC50: −log10 of the molar value. Like-named read-outs stand apart in the source and are kept apart here.

Columns and labels:
[1] = molecular target: BRD4 (BD1+BD2) bromodomain (Homo sapiens (Human), UniProt O60885); assay: BRD4 binding inhibition (AlphaScreen, GST-BRD4 vs tetraacetylated histone H4 peptide)
Outline: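 GST-BRD4 (BD1+BD2) and biotinylated tetraacetyl-histone H4 peptide, each at 100 nM in HEPES pH 7.4 buffer with BSA and DTT, were combined with compound. Glutathione acceptor and streptavidin donor beads were added, then incubated 30 min at room temperature in the dark. Read-out was AlphaScreen signal.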

[2] = test system: acute myelogenous leukemia cells (MV-4-11 cells); assay: Cytotoxicity to acute myelogenous leukemia cells (MV-4-11 cells), CCK-8; details: Homo sapiens, MV4-11, 72 h
Procedure: The following experiment was performed to evaluate the cytotoxicity of [1,2,4]triazolo[4,3-a]quinoxaline derivative according to the present invention to acute myelogenous leukemia cells (MV-4-11 cells).
Acute myelogenous leukemia cells (MV-4-11 cells) were distributed in a 96 well plate at the density of 5×10^3 cells/well. The plated cells were treated with the compounds of the present invention dissolved in DMSO at the different concentrations ranging from 0.01 μM to 10 μM. 72 hours later, the activities of the compounds were determined using CCK-8 reagent.

[3] = GST-BRD4 (BD1+BD2) / biotinylated acetyl-histone H4 (Lys5,8,12,16) peptide, read-out: IC50, BRD4 binding inhibition
[4] = GST-BRD4 (BD1+BD2) vs biotinylated acetyl-histone H4 peptide, AlphaScreen, read-out: BRD4 IC50
[5] = read-out: IC50, cytotoxicity against acute myelogenous leukemia cells
[6] = read-out: MV-4-11 Cytotoxicity IC50

| SMILES | pIC50 [1, 3] | pIC50 [1, 4] | pIC50 [2, 5] | pIC50 [2, 6] | pIC50 ([1]; IC50, BRD4 binding inhibition, GST-BRD4 (BD1+BD2) / biotinylated acetyl-histone H4 (Lys5,8,12,16) peptide) |
| --- | --- | --- | --- | --- | --- |
| COc1ccc2c(c1)nc(NCCCCNC(=O)[C@@H](NC(=O)CC(C)C)C(C)C)c1nnc(C)n12 [Example 322, (S)-N-[4-(7-methoxy-1-methyl-[1,2,4]triazolo[4,3-a]quinoxaline-4-ylamino)-butyl]-3-methyl-2-(3-methyl-butyrylamino)-butyramide] | ≥ 7.30 | 7.85 | ≥ 6.70 | 6.80 | – |
| COc1ccc2c(c1)nc(NCCCCNC(=O)[C@@H](NC(=O)C(C)(C)C)C(C)C)c1nnc(C)n12 [Example 323, (S)-2-(2,2-dimethyl-propionylamino)-N-[4-(7-methoxy-1-methyl-[1,2,4]triazolo[4,3-a]quinoxaline-4-ylamino)-butyl]-3-methyl-butyramide] | ≥ 7.30 | 7.46 | ≥ 6.70 | 6.97 | – |
| COc1ccc2c(c1)nc(NCCCCNC(=O)[C@@H](NS(C)(=O)=O)C(C)C)c1nnc(C)n12 [Example 327, 2-(S)-methanesulfonylamino-N-[4-(7-methoxy-1-methyl-[1,2,4]triazolo[4,3-a]quinoxaline-4-ylamino)-butyl]-3-methyl-butyramide] | ≥ 7.30 | 7.74 | ≥ 6.70 | 6.85 | – |
| COc1ccc2c(c1)nc(NCCCCNC(=O)c1ccccc1F)c1nnc(C)n12 [Example 328, 2-fluoro-N-[4-(7-methoxy-1-methyl-[1,2,4]triazolo[4,3-a]quinoxaline-4-ylamino)-butyl]-benzramide] | ≥ 7.30 | 7.37 | ≥ 6.70 | 6.72 | – |
| COc1ccc2c(c1)nc(NCCCCNC(=O)Cc1ccccc1)c1nnc(C)n12 [Example 329, N-[4-(7-methoxy-1-methyl-[1,2,4]triazolo[4,3-a]quinoxaline-4-ylamino)-butyl]-2-phenyl-acetamide] | ≥ 7.30 | 7.46 | ≥ 6.70 | 7.72 | – |
| COc1ccc2c(c1)nc(NCCCCNC(=O)NC(C)C)c1nnc(C)n12 [Example 330, 1-isopropyl-3-[4-(7-methoxy-1-methyl-[1,2,4]triazolo[4,3-a]quinoxaline-4-ylamino)-butyl]-urea] | ≥ 7.30 | 7.54 | ≥ 6.70 | 6.85 | – |
| COc1ccc2c(c1)nc(NCCCCNC(=O)OC1CCCC1)c1nnc(C)n12 [Example 332, [4-(7-methoxy-1-methyl-[1,2,4]triazolo[4,3-a]quinoxaline-4-ylamino)-butyl]-carbamic acid cyclopentylester] | ≥ 7.30 | 7.77 | ≥ 6.70 | 8.00 | – |
| COc1ccc2c(c1)nc(NCCCCNC(=O)Oc1ccccc1)c1nnc(C)n12 [Example 333, [4-(7-methoxy-1-methyl-[1,2,4]triazolo[4,3-a]quinoxaline-4-ylamino)-butyl]-carbamic acid phenylester] | – | 7.74 | ≥ 6.70 | 6.96 | ≥ 7.30 |
| COc1ccc2c(c1)nc(NCCCCNC(=O)NC1CCCCC1)c1nnc(C)n12 [Example 335, 1-cyclohexyl-3-[4-(7-methoxy-1-methyl-[1,2,4]triazolo[4,3-a]quinoxaline-4-ylamino)-butyl]-urea] | ≥ 7.30 | 7.80 | ≥ 6.70 | 7.40 | – |
| COc1ccc2c(c1)nc(NCCCCNC(=O)SC(C)C)c1nnc(C)n12 [Example 336, [4-(7-methoxy-1-methyl-[1,2,4]triazolo[4,3-a]quinoxaline-4-ylamino)-butyl]-thiocarbamic acid-S-isopropyl ester] | ≥ 7.30 | 7.48 | ≥ 6.70 | 7.10 | – |
| Cc1nnc2c(NCCCCNC(=O)CC(C)C)nc3cc(O)ccc3n12 [Example 340, N-[4-(7-hydroxy-1-methyl-[1,2,4]triazolo[4,3-a]quinoxaline-4-ylamino)-butyl]-3-methyl-butyramide] | ≥ 7.30 | 7.64 | ≥ 6.70 | 7.27 | – |
| Cc1nnc2c(NCCCCNC(=O)CC(C)C)nc3cc(OCc4ccc(C#N)cc4)ccc3n12 [Example 341, N-{4-[7-(4-cyano-benzyloxy)-1-methyl-[1,2,4]triazolo[4,3-a]quinoxaline-4-ylamino]-butyl}-3-methyl-butyramide] | – | 7.15 | ≥ 6.70 | 7.28 | – |
| Cc1nnc2c(NCCCCNC(=O)CC(C)C)nc3cc(OCCCC#N)ccc3n12 [Example 342, N-{4-[7-(3-cyano-propoxy)-1-methyl-[1,2,4]triazolo[4,3-a]quinoxaline-4-ylamino]-butyl}-3-methyl-butyramide] | – | 7.25 | ≥ 6.70 | 7.55 | – |
| Cc1nnc2c(NCCCCNC(=O)CC(C)C)nc3cc(OCC4CCCCO4)ccc3n12 (centres unmarked) [Example 343, 3-methyl-N-{4-[1-methyl-7-(tetrahydro-pyran-2-yl-methoxy)-[1,2,4]triazolo[4,3-a]quinoxaline-4-ylamino]-butyl}-butyramide] | ≥ 7.30 | 7.44 | ≥ 6.70 | 6.92 | – |
| Cc1nnc2c(NCCCCNC(=O)CC(C)C)nc3cc(OC4CCOCC4)ccc3n12 [Example 344, 3-methyl-N-{4-[1-methyl-7-(tetrahydro-pyran-4-yloxy)-[1,2,4]triazolo[4,3-a]quinoxaline-4-ylamino]-butyl}-butyramide] | ≥ 8.00 | 8.00 | ≥ 6.70 | 6.92 | – |
| Cc1nnc2c(NCCCCNC(=O)CC(C)C)nc3cc(OCc4ccccc4)ccc3n12 [Example 346, N-[4-(7-benzyloxy-1-methyl-[1,2,4]triazolo[4,3-a]quinoxaline-4-ylamino)-butyl]-3-methyl-butyramide] | ≥ 7.30 | 7.66 | ≥ 6.70 | 7.10 | – |
| Cc1nnc2c(NCCCCNC(=O)CC(C)C)nc3cc(OCc4ccc(-c5nnn(C)n5)cc4)ccc3n12 [Example 349, 3-methyl-N-(4-{1-methyl-7-[4-(2-methyl-2H-tetrazolo-5-yl)-benzyloxy]-[1,2,4]triazolo[4,3-a]quinoxaline-4-ylamino}-butyl)-butyramide] | – | 7.26 | ≥ 6.70 | 6.80 | – |
| CSc1ccc2c(c1)nc(NCCCCNC(=O)OC(C)(C)C)c1nnc(C)n12 [Example 354, [4-(1-methyl-7-methylsulfanyl-[1,2,4]triazolo[4,3-a]quinoxaline-4-ylamino)-butyl]-carbamic acid-tert-butylester] | – | 7.25 | – | 6.33 | – |
| CSc1ccc2c(c1)nc(NCCCCNC(=O)[C@@H](F)C(C)C)c1nnc(C)n12 [Example 357, 2-(S)-fluoro-3-methyl-N-[4-(1-methyl-7-methylsulfanyl-[1,2,4]triazolo[4,3-a]quinoxaline-4-ylamino)-butyl]-butyramide] | – | 7.21 | ≥ 6.70 | 7.36 | – |
| CSc1ccc2c(c1)nc(NCCCCNC(=O)[C@@H](O)C(C)C)c1nnc(C)n12 [Example 358, 2-(S)-hydroxy-3-methyl-N-[4-(1-methyl-7-methylsulfanyl-[1,2,4]triazolo[4,3-a]quinoxaline-4-ylamino)-butyl]-butyramide] | ≥ 8.00 | 8.15 | – | 6.80 | – |
| COCCOc1ccc2c(c1)nc(NCCCCNC(=O)CC(C)C)c1nnc(C)n12 [Example 365, N-{4-[7-(2-methoxy-ethoxy)-1-methyl-[1,2,4]triazolo[4,3-a]quinoxaline-4-ylamino]-butyl}-3-methyl-butyramide] | ≥ 7.30 | 7.89 | ≥ 6.70 | 7.22 | – |
| COCCOc1ccc2c(c1)nc(NCCCCNC(=O)OC(C)C)c1nnc(C)n12 [Example 366, {4-[7-(2-methoxy-ethoxy)-1-methyl-[1,2,4]triazolo[4,3-a]quinoxaline-4-ylamino]-butyl}-carbamic acid isopropylester] | ≥ 7.30 | 7.80 | ≥ 6.70 | 6.96 | – |
| CCCOC(=O)NCCCCNc1nc2cc(OCCOC)ccc2n2c(C)nnc12 [Example 367, {4-[7-(2-methoxy-ethoxy)-1-methyl-[1,2,4]triazolo[4,3-a]quinoxaline-4-ylamino]-butyl}-carbamic acid propylester] | ≥ 8.00 | 8.30 | – | 6.46 | – |
| CCC(C)OC(=O)NCCCCNc1nc2cc(OCCOC)ccc2n2c(C)nnc12 (centres unmarked) [Example 368, {4-[7-(2-methoxy-ethoxy)-1-methyl-[1,2,4]triazolo[4,3-a]quinoxaline-4-ylamino]-butyl}-carbamic acid-sec-butylester] | ≥ 8.00 | 8.00 | ≥ 6.70 | 6.85 | – |
| COCCOc1ccc2c(c1)nc(NCCCCNC(=O)OCC(C)C)c1nnc(C)n12 [Example 369, {4-[7-(2-methoxy-ethoxy)-1-methyl-[1,2,4]triazolo[4,3-a]quinoxaline-4-ylamino]-butyl}-carbamic acid isobutylester] | ≥ 7.30 | 7.85 | ≥ 6.70 | 6.89 | – |
| C=CCOC(=O)NCCCCNc1nc2cc(OCCOC)ccc2n2c(C)nnc12 [Example 370, {4-[7-(2-methoxy-ethoxy)-1-methyl-[1,2,4]triazolo[4,3-a]quinoxaline-4-ylamino]-butyl}-carbamic acid allylester] | ≥ 7.30 | 7.85 | – | 6.62 | – |
